Test [1] is described as follows: Inhibition of gastrulation in starfish embryo. In kind it is functional. The following applies: Marthasterias glacialis.
Test [2] concerns Staphylococcus aureus. Put plainly: Antibacterial activity methicillin-resistant Staphylococcus aureus ATCC 43300 assessed as bacterial growth inhibition by microdilution method. In kind it is functional.
For test [3], the target named is NAD(P)H dehydrogenase [quinone] 1 (Mus musculus) (UniProt Q64669). Put plainly: Activation of QR1 in mouse hepatoma cells incubated for 48 hrs by MTT assay. The following applies: Hepatoma cell line, filed as activator. In kind it is cell-based. On the technique in general: Tetrazolium assays rely on reduction of a dye to a coloured formazan, in cell work by metabolically active cells.

A short description of test [4]: Upregulation of glutathione level in mouse Hepa1c1c7 cells assessed as drug concentration required for double induction incubated for 48 hrs in presence of NADPH by Ellman method. Format: functional. (In general: DTNB colorimetry detects thiols as they appear.)
In test [5] the test system is Human immunodeficiency virus. Description: Antiviral activity agianst HIV assessed as viral growth inhibition. Format: functional, organism-based. The following applies: Human immunodeficiency virus 1.
Test [6] deals with Staphylococcus aureus. Description: Antibacterial activity against Staphylococcus aureus NBRC12732 assessed as bacterial growth inhibition. Format: functional.
Test [7] in a line: Inhibition of Staphylococcus tyrS using tyrosine as substrate preincubated for 10 mins by substrate addition and measured after 2 hrs. More on the design: species or system Staphylococcus sp.
For another test, the system named is KB. Description: Cytotoxicity against human KB cells assessed as reduction in cell viability. In kind it is functional. The following applies: read-out: ED50 (the source's name).

Converted amounts (≈) assume the structure as drawn.

From ChEMBL document CHEMBL5137056, “Micromonospora: A Prolific Source of Bioactive Secondary Metabolites with Therapeutic Potential” (J Med Chem, 2022) come the findings set out here.

NAD(P)H dehydrogenase [quinone] 1 (Mus musculus), sequence (Q64669 whole entry): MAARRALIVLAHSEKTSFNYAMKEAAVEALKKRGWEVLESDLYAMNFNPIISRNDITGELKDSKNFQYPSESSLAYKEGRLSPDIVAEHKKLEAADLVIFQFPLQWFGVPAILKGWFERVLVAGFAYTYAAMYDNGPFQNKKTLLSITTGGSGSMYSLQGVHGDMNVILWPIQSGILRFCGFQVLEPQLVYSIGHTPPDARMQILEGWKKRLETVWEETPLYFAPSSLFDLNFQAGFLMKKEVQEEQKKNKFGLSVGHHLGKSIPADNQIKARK

Usually MIC stands for the lowest concentration found to suppress growth. `C=C/C=C/[C@H]1O[C@@](O)([C@@H](C)[C@H](O)[C@H](C)[C@H]2OC(=O)/C(OC)=C/C(C)=C/[C@@H](C)[C@@H](O)[C@@H](C)C/C(C)=C/C=C/[C@@H]2OC)C[C@@H](O)[C@@H]1C` yielded an MIC in test [1] of 0.01 µg/mL (≈ 0.0158 µM).

On to `CNC1=CC(=O)c2c(cnc(C)c2C)C1=O` [MANSOURAMYCIN A], for which the MIC with Staphylococcus aureus [2] was 8 µg/mL.

For the compound `C=C/C=C/[C@H]1O[C@@](O)([C@@H](C)[C@H](O)[C@H](C)[C@H]2OC(=O)/C(OC)=C/C(C)=C/[C@@H](C)[C@@H](O)[C@@H](C)C/C(C)=C/C=C/[C@@H]2OC)C[C@@H](OC(=O)/C=C/C(=O)NC2=C(O)CCC2=O)[C@@H]1C`, the MIC in test [1] was found to be 0.01 µg/mL (≈ 0.0121 µM).

Consider `CC[C@H]1C[C@@H](C)C(=O)/C=C/[C@]2(C)O[C@H]2[C@H](C)[C@@H](CC)OC(=O)C[C@@H](O)[C@H](C)[C@H]1O[C@@H]1O[C@@H](C)[C@H](O)[C@@H](O)[C@H]1O`, for which the values for the CD in test [3] and in test [4] were 10.1 µM and 27.7 µM, respectively.

As a reminder, the IC50 is the concentration needed to halve the response being measured. For the compound `CC(C)CCCCCCCC[C@@H](O)CC(=O)N[C@@H](CCC(=O)O)C(=O)N[C@@H](CC(C)C)C(=O)N[C@H](CC(C)C)C(=O)N[C@H](C(=O)N[C@@H](CC(=O)O)C(=O)N[C@H](CC(C)C)C(=O)N[C@@H](CC(C)C)C(=O)O)C(C)C`, in test [5], the IC50 was 5.3 µM.

For the compound `C[C@H]1CC[C@@H]2[C@H](C=C[C@H]3[C@H](C)/C=C/C[C@]4(C)C=C(CO)[C@H](C[C@@H](C)O)C[C@]45OC(=O)C(=C5O)C(=O)[C@@]23C)C1` [MAKLAMICIN], the MIC with Staphylococcus aureus [6] was 13 µg/mL (≈ 24.8 µM).

Consider `CCC(C)CCCCCCCC[C@@H](O)CC(=O)N[C@@H](CCC(=O)O)C(=O)N[C@@H](CC(C)C)C(=O)N[C@H](CC(C)C)C(=O)N[C@H](C(=O)N[C@@H](CC(=O)O)C(=O)N[C@H](CC(C)C)C(=O)N[C@@H](CC(C)C)C(=O)O)C(C)C` (stereo partly specified), for which, in test [5], the IC50 was determined as 5.3 µM.

In the case of `CC1=C[C@@]2(C)C/C=C/[C@@H](C)[C@@H]3C=C[C@@H]4C[C@@H](C)CC[C@H]4[C@]3(C)C(=O)C3=C(O)[C@@]2(C[C@H]1C[C@@H](C)O)OC3=O`, the MIC in the test on Staphylococcus aureus [6] was determined as 1.6 µg/mL (≈ 3.15 µM).

For `N[C@@H](Cc1ccc(O)cc1)C(=O)N[C@H](C(=O)O)[C@H]1[C@H](O)[C@]2(O)CO[C@@H]([C@@H]2O)N1O`, the IC50 in test [7] was less than 0.001 µM.

Take `COc1n/c(=C\c2ccccc2)c(=O)[nH]/c1=C\c1ccccc1`: in the test on KB, the EC50 amounted to 0.94 µg/mL (≈ 3.09 µM).
